Measured values taken from patent US11040981B2, “Pyrrolotriazine compounds and methods of inhibiting TAM kinases” (Syros Pharmaceuticals, Inc., priority 2017, dated 2021).

Test system: colon carcinoma CT-26 cells
Assay: CT-26 syngeneic tumor growth inhibition, alone or with anti-PD1 antibody
Type: in vivo, Balb/c female mice
Conditions: Compound 124 100 mg/kg oral twice daily combined with anti-PD1 antibody (clone RMP1-14) 10 mg/kg IP biweekly; compared with either agent as monotherapy; FIG. 3
Experimental: BLAB/c syngeneic mice challenged with colon carcinoma CT-26 cells were used to test the tumor growth inhibitory activity of Compound 124 and an anti-PD1 antibody alone or in combination. CT-26 tumor cells were maintained in vitro as a monolayer culture in RPMI-1640 medium supplemented with 10% heat inactivated fetal bovine serum, 100 U/ml penicillin and 100 μg/ml streptomycin at 37° C. in an atmosphere of 5% CO2 in air. The tumor cells were routinely subcultured twice weekly by trypsin-EDTA treatment. The cells growing in an exponential growth phase were harvested and counted for tumor inoculation. […]
Mice (8 for each regimen) were dosed with one of the following regimens: (1) twice daily oral dosing with 100 mg/kg of Compound 124; (2) biweekly IP injections with 10 mg/kg of anti-PD1 antibody (clone RMP1-14); (3) a combination of twice daily Compound 124 (100 mg/kg) and biweekly anti-PD1 antibody (10 mg/kg) or (4) an orally dosed vehicle control. Subcutaneous tumor volumes were measured three times per week starting at three days post-first dosing using caliper measurements in 2 dimensions (looking down at the tumor, using the calipers to make 2 diameter measurements at right angles to each other). The tumor volume was then calculated using the following standard formula: Tumor Volume=0.5*A*B^2, wherein A=longest diameter of the tumor; and B=shortest diameter of the tumor.

Question: For `COC[C@H](C)Nc1ncc2c(-c3ccc(CN4CCN(C)CC4)cc3)cc([C@H]3CC[C@H](O)CC3)n2n1` (single isomer, unassigned) [Compound 124], which “tumor growth (subcutaneous tumor volume)” value is on record?
Answer: slower tumor growth
